From patent publication US4026888A, “Certain derivatives of particular 3-thiolated cephalosporins” (priority 1976, dated 1977)
In brackets after ≈: the same amount, converted by molar mass. Read-outs that look alike come from different tables or passages of the source.

Key:
[1] = tested on: Str. pyogenes A9604; assay: Antibiotic activity in nutrient broth (MIC); assay type: cell-based; settings: 45% AAB + 5% serum + 50% broth, derivatives adjusted for BL-S640 content
Excerpt: (§1) Antibiotic Activity In Nutrient Broth
* 45% AAB+ 5% serum+ 50% broth listed above.
(§2) ** Dilution of overnight broth culture.
(§3) Antibiotic Spectrum Nutrient Broth
* 45% AAB + 5% serum + 50% broth
(§4) Antibiotic Spectrum in Nutrient Broth
*45% AAB + 5% serum + 50% broth listed above.

[2] = tested on: S. pyogenes A9604; assay: Oral PD50 in mice; assay type: in vivo; settings: Streptococcus pyogenes, mice treated at 1 and 3.5 hours post-challenge
Experimental: (§5) Comparative Oral PD50 Values of
(§6) BL-S640 Derivatives in Mice
(§7) *Mice were treated at 1 and 3.5 hours post-challenge.

[3] = tested on: E. coli A15119; assay: Oral PD50 in mice; assay type: in vivo; settings: Escherichia coli, A15119, po, 3.5 h, read-out: PD50
Experimental: as §5, §6, §7

[4] = tested on: K. pneumoniae A9977; assay: Oral PD50 in mice; assay type: in vivo; settings: Klebsiella pneumoniae, A9977; oral; mice treated at 1 and 3.5 hours post-challenge; read-out: PD50
Experimental: as §5, §6, §7

[5] = tested on: P. mirabilis A9707; assay: Oral PD50 in mice; assay type: in vivo; settings: Proteus mirabilis, mice treated at 1 and 3.5 hours post-challenge
Experimental: as §5, §6, §7

[6] = tested on: Ent. cloacae A9659; assay: Antibiotic activity in nutrient broth (MIC); assay type: cell-based; settings: derivatives adjusted for BL-S640 content
Excerpt: as §1, §2, §3, §4

[7] = tested on: Ps. aeruginosa A9843A; assay: Antibiotic activity in nutrient broth (MIC); assay type: cell-based; settings: Pseudomonas aeruginosa
Excerpt: as §1, §2, §3, §4

[8] = tested on: E. coli A9675; assay: Antibiotic activity in nutrient broth (MIC); assay type: cell-based; settings: derivatives adjusted for BL-S640 content
Excerpt: as §1, §2, §3, §4

[9] = tested on: Ent. cloacae A9656; assay: Antibiotic activity in nutrient broth (MIC); assay type: cell-based; settings: Enterobacter cloacae, derivatives adjusted for BL-S640 content
Excerpt: as §1, §2, §3, §4

[10] = tested on: Sal. enteritidis A9531; assay: Antibiotic activity in nutrient broth (MIC); assay type: cell-based; settings: inoculum 10^-4, derivatives adjusted for BL-S640 content
Excerpt: as §1, §2, §3, §4

[11] = tested on: K. pneumoniae A15130; assay: Antibiotic activity in nutrient broth (MIC); assay type: cell-based; settings: derivatives adjusted for BL-S640 content
Excerpt: as §1, §2, §3, §4

[12] = tested on: K. pneumoniae A9977; assay: Antibiotic activity in nutrient broth (MIC); assay type: cell-based; settings: Klebsiella pneumoniae, inoculum 10^-4, derivatives adjusted for BL-S640 content, read-out: MIC
Excerpt: as §1, §2, §3, §4

[13] = Urinary recovery after IM administration to rats; assay type: in vivo; settings: rat, urine, 50 mg/kg, IM 50 mg./kg., read-out: Urinary Recovery, Percentage of Administered Dose Recovered
Experimental: Urinary Recovery After IM
Administration of 50 and 10 mg./kg. to Rats
The compounds were prepared in 0.01% phosphate buffer. BL-S640 was used as
Urinary Recovery after IM
Administration of 50 mg./kg. to Rats
(§8) The compounds were prepared in 0.01% phosphate buffer.

[14] = Mouse blood levels after oral administration; assay type: in vivo
Experimental: Mouse Blood Levels After Oral
Administration Of 100 mg./kg. Body Weight
The compounds were prepared in
Tween - carboxymethylcellulose
and 8 mice were used for each
Mouse Blood Levels After PO
Administration of 100 mg./kg. Body Weight
The compounds were prepared in Tween-CMC. BL-S640
The compounds were prepared in Tween-CMC. Values are the average of two

[15] = Mouse blood levels after intramuscular administration; assay type: in vivo; settings: IM 10 mg./kg.
Experimental: Mouse Blood Levels After Intramuscular Administration
of 10 mg./kg. Body Weight
The compounds were dissolved in 0.01% phosphate buffer.
Mouse Blood Levels After IM
Administration of 10 mg./kg. Body Weight
The compounds were prepared in 0.01% phosphate
as §8

[16] = tested on: P. mirabilis A9900; assay: Oral PD50 in mice; assay type: in vivo; settings: oral, mice treated at 1 and 3.5 hours post-challenge
[17] = tested on: P. mirabilis A9900; assay: IM PD50 in mice; assay type: in vivo; settings: Proteus mirabilis
Excerpt: Comparative IM PD50 Values of
as §6

[18] = mouse, blood, im, 10 mg/kg, Example 3, average of 3 experiments, read-out: Blood Levels
[19] = mouse, blood, im, 10 mg/kg, Table III, 0.01% phosphate buffer, read-out: Mouse Blood Levels

Structure (SMILES): N[C@@H](C(=O)N[C@@H]1C(=O)N2C(C(=O)O)=C(CSc3cnn[nH]3)CS[C@H]12)c1ccc(O)cc1 [BL-S640, 7-[D-α-amino-α-(p-hydroxyphenyl)acetamido]-3-(1,2,3-triazol-5-ylthiomethyl)-3-cephem-4-carboxylic acid, reference compound]
- MIC ([1]; Streptococcus pyogenes, A9604, inoculum 10^-3, read-out: MIC): 0.06 µg/mL
- MIC ([1]; inoculum 10^-3): 0.03 µg/mL
- ED50 [2]: 0.4 mg/kg
- ED50 ([3]; oral, mice treated at 1 and 3.5 hours post-challenge): 4.1 mg/kg
- ED50 [3]: 1.4 mg/kg
- ED50 [4]: 1.6 mg/kg
- ED50 [5]: 2.4 mg/kg
- MIC ([6]; Enterobacter cloacae, A9659, inoculum 10^-4, read-out: MIC): 63 µg/mL (≈ 136 µM)
- MIC ([6]; inoculum 10^-4): 32 µg/mL (≈ 69.2 µM)
- MIC [7]: > 125 µg/mL
- MIC ([8]; Escherichia coli, A9675, inoculum 10^-4, read-out: MIC): 4 µg/mL (≈ 8.65 µM)
- MIC ([8]; inoculum 10^-4): 2 µg/mL (≈ 4.32 µM)
- MIC ([9]; A9656, inoculum 10^-4): > 125 µg/mL
- MIC ([9]; A9656, inoculum 10^-4, read-out: MIC): 63 µg/mL (≈ 136 µM)
- MIC ([10]; Salmonella enterica, ENTERITIDIS, read-out: MIC): 0.25 µg/mL (≈ 0.541 µM)
- MIC [10]: 0.13 µg/mL (≈ 0.281 µM)
- MIC ([11]; Klebsiella pneumoniae, A15130, inoculum 10^-4, read-out: MIC): 2 µg/mL (≈ 4.32 µM)
- MIC ([11]; inoculum 10^-4): 1 µg/mL (≈ 2.16 µM)
- MIC [12]: 0.5 µg/mL (≈ 1.08 µM)
- dose excreted at 6 h ([13]; 0-6 hr): 44.2%
- dose excreted at 24 h ([13]; 0-24 hr): 47.5%
- dose excreted at 24 h ([13]; 6-24 hr): 3.3%
- Blood Levels ([14]; Example 3, PO 100 mg./kg., 1 hr, Tween-CMC, average of two experiments): 42400 ng/mL
- Blood Level ([14]; Table II, oral 100 mg./kg., 0.5 hr, Tween-carboxymethylcellulose, 8 mice, 100 mg/kg, 30 min): 57400 ng/mL
- Blood Level ([14]; Table II, oral 100 mg./kg., 1 hr, Tween-carboxymethylcellulose, 8 mice, 100 mg/kg, 60 min): 47000 ng/mL
- Blood Level ([14]; Table II, oral 100 mg./kg., 2 hr, Tween-carboxymethylcellulose, 8 mice, 100 mg/kg, 120 min): 29500 ng/mL
- Blood Level ([14]; Table II, oral 100 mg./kg., 3.5 hr, Tween-carboxymethylcellulose, 8 mice, 100 mg/kg, 210 min): 10900 ng/mL
- concentration at 0.5 h ([14]; mouse, blood, po, 100 mg/kg, Example 3, PO 100 mg./kg., 0.5 hr, Tween-CMC, average of two experiments, read-out: Blood Levels): 48700 ng/mL
- concentration at 2 h ([14]; mouse, blood, po, 100 mg/kg, Example 3, PO 100 mg./kg., 2 hr, Tween-CMC, average of two experiments, read-out: Blood Levels): 24000 ng/mL
- concentration at 3.5 h ([14]; mouse, blood, po, 100 mg/kg, Example 3, PO 100 mg./kg., 3.5 hr, Tween-CMC, average of two experiments, read-out: Blood Levels): 10100 ng/mL
- concentration at 0.5 h ([14]; mouse, blood, po, 100 mg/kg, Table II, oral 100 mg./kg., 0.5 hr, Tween-carboxymethylcellulose, 8 mice, read-out: Blood Level): 50500 ng/mL
- concentration at 1 h ([14]; mouse, blood, po, 100 mg/kg, Table II, oral 100 mg./kg., 1 hr, Tween-carboxymethylcellulose, 8 mice, read-out: Blood Level): 39000 ng/mL
- concentration at 2 h ([14]; mouse, blood, po, 100 mg/kg, Table II, oral 100 mg./kg., 2 hr, Tween-carboxymethylcellulose, 8 mice, read-out: Blood Level): 24500 ng/mL
- concentration at 3.5 h ([14]; mouse, blood, po, 100 mg/kg, Table II, oral 100 mg./kg., 3.5 hr, Tween-carboxymethylcellulose, 8 mice, read-out: Blood Level): 9600 ng/mL
- Blood Levels ([15]; Example 2, 1 hr, 0.01% phosphate buffer, 16 or 32 mice): 9500 ng/mL
- concentration at 0.25 h [15, 18]: 12700 ng/mL
- concentration at 0.5 h ([15]; mouse, blood, im, 10 mg/kg, Example 3, 0.5 hr, average of 3 experiments, read-out: Blood Levels): 11500 ng/mL
- concentration at 1 h ([15]; mouse, blood, im, 10 mg/kg, Example 3, 1 hr, average of 3 experiments, read-out: Blood Levels): 8000 ng/mL
- concentration at 1.5 h [15, 18]: 5700 ng/mL
- concentration at 0.25 h [15, 19]: 16300 ng/mL
- concentration at 1.5 h [15, 19]: 6300 ng/mL
- ED50 ([16]; Proteus mirabilis, A9900, po, 3.5 h, read-out: PD50): 7.2 mg/kg
- PD50 [16]: 9.6 mg./kg./treatment
- ED50 [17]: 1.6 mg/kg
